The results in this text go back to article PMC5666424, “Marine-Derived 2-Aminoimidazolone Alkaloids. Leucettamine B-Related Polyandrocarpamines Inhibit Mammalian and Protozoan DYRK & CLK Kinases” (Marine Drugs, 2017).

The subject of test [1] is 27 purified kinases (14 mammalian and 13 unicellular parasites). In words: Battery of 27 purified kinases.
Source text: We tested a selection of these 2-aminoimidazolones (Figure 1) on a battery of 27 purified kinases (14 mammalian and 13 unicellular parasites (Supplementary Table S3)).
Another test deals with CLK1 (Mus musculus, UniProt P22518). In words: Protein kinase assay. As to conditions: IC50 CLK1, 15 μmol/L ATP.
The next test has as its target T1, DYRK3 (Homo sapiens, UniProt O43781).
T1 sequence (O43781 1-588): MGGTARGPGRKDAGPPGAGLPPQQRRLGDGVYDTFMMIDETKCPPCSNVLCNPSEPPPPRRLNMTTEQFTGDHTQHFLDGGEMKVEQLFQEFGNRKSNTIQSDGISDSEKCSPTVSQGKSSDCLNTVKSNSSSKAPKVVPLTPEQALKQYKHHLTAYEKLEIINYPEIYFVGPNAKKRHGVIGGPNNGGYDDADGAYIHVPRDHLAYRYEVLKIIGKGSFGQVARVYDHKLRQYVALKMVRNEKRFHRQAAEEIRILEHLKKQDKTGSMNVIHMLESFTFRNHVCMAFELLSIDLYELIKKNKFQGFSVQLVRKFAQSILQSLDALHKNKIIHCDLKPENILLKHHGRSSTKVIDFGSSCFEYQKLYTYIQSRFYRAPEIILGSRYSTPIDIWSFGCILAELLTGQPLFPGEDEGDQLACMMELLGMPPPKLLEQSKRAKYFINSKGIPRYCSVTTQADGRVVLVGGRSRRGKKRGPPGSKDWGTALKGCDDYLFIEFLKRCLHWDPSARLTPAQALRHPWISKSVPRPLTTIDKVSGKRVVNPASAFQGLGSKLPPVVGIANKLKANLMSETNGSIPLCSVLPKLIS
As to the kind of experiment: Protein kinase assay. Type of test: biochemical.

For another test, the target named is LmCK1 (Leishmania major, UniProt Q9NHE1). In words: Protein kinase assay. It is filed as biochemical. The method, then: CK1δ/ε (porcine brain, native) and LmCK1 (leishmania major, recombinant, expressed in E. coli as HIS fusion proteins) was assayed as described for CDK1 but in buffer C and using 25 μM CKS peptide ([…]pSAYSITA), a CK1-specific substrate.
Sequence of LmCK1 (Q9NHE1 entry or part of it): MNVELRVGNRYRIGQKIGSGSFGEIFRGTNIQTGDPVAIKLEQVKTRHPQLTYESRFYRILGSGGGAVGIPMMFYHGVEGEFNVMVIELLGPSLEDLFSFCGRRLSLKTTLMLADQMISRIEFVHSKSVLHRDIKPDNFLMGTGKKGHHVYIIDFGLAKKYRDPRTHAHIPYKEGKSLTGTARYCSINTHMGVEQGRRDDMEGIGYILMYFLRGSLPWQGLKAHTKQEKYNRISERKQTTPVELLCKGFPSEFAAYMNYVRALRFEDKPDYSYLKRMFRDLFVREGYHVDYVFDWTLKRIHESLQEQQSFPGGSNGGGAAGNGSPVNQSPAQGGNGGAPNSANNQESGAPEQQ
The next test addresses T2, DYRK2 (Homo sapiens, UniProt Q92630).
T2 sequence (Q92630 1-601): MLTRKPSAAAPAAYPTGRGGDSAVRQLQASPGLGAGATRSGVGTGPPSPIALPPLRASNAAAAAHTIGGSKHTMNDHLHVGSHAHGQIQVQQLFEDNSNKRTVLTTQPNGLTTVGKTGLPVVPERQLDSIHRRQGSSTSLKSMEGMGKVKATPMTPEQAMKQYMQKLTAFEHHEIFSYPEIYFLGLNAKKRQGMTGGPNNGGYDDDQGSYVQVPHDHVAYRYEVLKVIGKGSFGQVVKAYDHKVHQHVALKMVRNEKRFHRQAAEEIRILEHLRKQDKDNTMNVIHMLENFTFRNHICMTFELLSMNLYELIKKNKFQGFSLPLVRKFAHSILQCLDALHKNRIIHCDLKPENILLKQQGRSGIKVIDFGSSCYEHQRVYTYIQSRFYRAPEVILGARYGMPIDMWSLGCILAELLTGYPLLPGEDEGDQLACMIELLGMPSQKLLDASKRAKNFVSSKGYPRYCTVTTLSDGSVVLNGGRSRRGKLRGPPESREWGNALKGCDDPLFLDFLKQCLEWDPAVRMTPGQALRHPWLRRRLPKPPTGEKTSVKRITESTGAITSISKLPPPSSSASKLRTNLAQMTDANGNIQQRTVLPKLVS
As to the kind of experiment: Protein kinase assay. Type of test: biochemical.

For another test, the system named is EGFR(L747-T751del,Sins). In words: KinomeScan. Type of test: binding, human. As to conditions: 1 μM. The method, then: (§1) Assays were performed essentially as described previously. For most assays, kinase-tagged T7 phage strains were grown in parallel in 24-well blocks in an E. coli host derived from the BL21 strain. E. coli were grown to log-phase and infected with T7 phage from a frozen stock (multiplicity of infection ~0.1) and incubated with shaking at 32 °C until lysis (~90 min). The lysates were centrifuged (6000× g) and filtered (0.2 μm) to remove cell debris. The remaining kinases were produced in HEK-293 cells and subsequently tagged with DNA for qPCR detection. […] The liganded beads were blocked with excess biotin and washed with blocking buffer (SeaBlock (Pierce, ThermoFisher Scientific, Illkirch, France), 1% BSA, 0.05% Tween 20, 1 mM DTT) to remove unbound ligand and to reduce non-specific phage binding. […] An 11-point threefold serial dilution of each test compound was prepared in 100% DMSO at 100× final test concentration which and subsequently diluted to 1× in the assay. All reactions were performed in polystyrene 96-well plates in a final volume of 0.135 mL. […] The kinase concentration in the eluates was measured by qPCR.

Another test concerns FLT3(ITD). As to the kind of experiment: KinomeScan. It is filed as binding, human. As to conditions: 1 μM. The method, then: as §1
In a further test the target is T3, LCK (Homo sapiens, UniProt P06239).
T3 construct: purchased DiscoverX (KINOMEscan)
In words: KinomeScan. It is filed as binding. The following applies: 1 μM. The method, then: as §1

The target in test [2] is T4, ABL1(M351T)-phosphorylated (Homo sapiens, UniProt P00519, M351T).
T4 construct: purchased DiscoverX (KINOMEscan)
As to the kind of experiment: KinomeScan. Type of test: binding. The following applies: 1 μM. The method, then:
as §1

In the next test the target is T5, MET (Homo sapiens, UniProt P08581).
T5 construct: purchased DiscoverX (KINOMEscan)
As to the kind of experiment: KinomeScan. The following applies: 1 μM. It is filed as binding. The method, then:
as §1

The next test concerns the target T6, CHEK1 (Homo sapiens, UniProt O14757).
T6 construct: purchased DiscoverX (KINOMEscan)
In words: KinomeScan. It is filed as binding. The following applies: 1 μM. On the procedure: as §1

Another test has as its target T7, MAP4K3 (Homo sapiens, UniProt Q8IVH8).
T7 construct: purchased DiscoverX (KINOMEscan)
In words: KinomeScan. Type of test: binding. The following applies: 1 μM. On the procedure: as §1

The target in a further test is T8, EPHA1 (Homo sapiens, UniProt P21709).
T8 construct: purchased DiscoverX (KINOMEscan)
As to the kind of experiment: KinomeScan. Type of test: binding. As to conditions: 1 μM. The method, then:
as §1

Another test has as its target T9, ERN1 (Homo sapiens, UniProt O75460).
T9 construct: purchased DiscoverX (KINOMEscan)
As to the kind of experiment: KinomeScan. It is filed as binding. As to conditions: 1 μM. On the procedure:
as §1

The target of another test is T10, NEK11 (Homo sapiens, UniProt Q8NG66).
T10 construct: purchased DiscoverX (KINOMEscan)
As to the kind of experiment: KinomeScan. As to conditions: 1 μM. It is filed as binding. On the procedure: as §1

A further test addresses T11, AURKA (Homo sapiens, UniProt O14965).
T11 construct: purchased DiscoverX (KINOMEscan)
In words: KinomeScan. It is filed as binding. The following applies: 1 μM. The method, then: as §1

For the next test, the target named is T12, MYLK2 (Homo sapiens, UniProt Q9H1R3).
T12 construct: purchased DiscoverX (KINOMEscan)
T12 sequence (Q9H1R3 whole entry): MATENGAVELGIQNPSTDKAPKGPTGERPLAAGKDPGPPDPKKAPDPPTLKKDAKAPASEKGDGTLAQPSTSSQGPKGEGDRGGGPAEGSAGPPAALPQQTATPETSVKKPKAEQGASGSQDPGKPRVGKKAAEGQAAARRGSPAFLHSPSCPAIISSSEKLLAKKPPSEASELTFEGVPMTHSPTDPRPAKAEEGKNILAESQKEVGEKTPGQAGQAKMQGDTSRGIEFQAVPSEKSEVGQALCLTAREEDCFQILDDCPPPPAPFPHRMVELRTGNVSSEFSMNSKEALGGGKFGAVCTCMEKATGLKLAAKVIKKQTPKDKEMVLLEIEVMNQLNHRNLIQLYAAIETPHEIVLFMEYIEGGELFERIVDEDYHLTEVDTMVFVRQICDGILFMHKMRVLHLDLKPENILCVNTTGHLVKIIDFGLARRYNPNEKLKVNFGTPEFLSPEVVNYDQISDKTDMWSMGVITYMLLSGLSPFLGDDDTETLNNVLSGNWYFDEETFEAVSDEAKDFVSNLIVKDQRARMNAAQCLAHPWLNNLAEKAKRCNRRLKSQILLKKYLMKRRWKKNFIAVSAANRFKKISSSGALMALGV
As to the kind of experiment: KinomeScan. Type of test: binding. The following applies: 1 μM. On the procedure:
as §1

For a further test, the target named is T13, CAMK2D (Homo sapiens, UniProt Q13557).
T13 construct: purchased DiscoverX (KINOMEscan)
T13 sequence (Q13557 whole entry): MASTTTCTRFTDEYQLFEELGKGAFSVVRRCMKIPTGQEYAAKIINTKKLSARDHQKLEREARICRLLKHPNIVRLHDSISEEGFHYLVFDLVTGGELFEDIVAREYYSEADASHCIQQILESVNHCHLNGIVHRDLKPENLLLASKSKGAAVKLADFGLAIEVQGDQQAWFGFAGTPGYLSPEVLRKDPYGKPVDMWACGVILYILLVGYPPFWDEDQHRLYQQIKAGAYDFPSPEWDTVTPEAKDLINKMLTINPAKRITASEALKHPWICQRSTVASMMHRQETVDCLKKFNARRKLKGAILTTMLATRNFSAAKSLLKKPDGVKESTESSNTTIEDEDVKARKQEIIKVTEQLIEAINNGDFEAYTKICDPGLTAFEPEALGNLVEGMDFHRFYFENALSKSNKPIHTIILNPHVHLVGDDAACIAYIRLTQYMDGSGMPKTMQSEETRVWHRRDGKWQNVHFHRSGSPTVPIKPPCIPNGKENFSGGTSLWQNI
In words: KinomeScan. It is filed as binding. The following applies: 1 μM. The method, then: as §1

A further test deals with T14, CSNK1A1 (Homo sapiens, UniProt P48729).
T14 construct: purchased DiscoverX (KINOMEscan)
T14 sequence (P48729 whole entry): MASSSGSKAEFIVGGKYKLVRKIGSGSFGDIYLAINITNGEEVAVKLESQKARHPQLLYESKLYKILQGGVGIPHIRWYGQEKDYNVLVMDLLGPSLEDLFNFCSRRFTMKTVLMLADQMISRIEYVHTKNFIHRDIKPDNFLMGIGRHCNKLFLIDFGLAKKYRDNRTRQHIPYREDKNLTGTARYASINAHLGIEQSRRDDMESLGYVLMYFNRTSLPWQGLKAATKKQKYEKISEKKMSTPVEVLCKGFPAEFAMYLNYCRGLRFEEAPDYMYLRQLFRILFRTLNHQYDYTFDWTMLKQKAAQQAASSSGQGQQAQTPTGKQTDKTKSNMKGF
In words: KinomeScan. Type of test: binding. The following applies: 1 μM. On the procedure:
as §1

Where [3] appears, read: 15 μmol/L ATP, read-out: IC50 DYRK3.
[4] abbreviates: 15 μmol/L ATP, read-out: IC50 LmCK1.
The mark [5] stands for this setting: 15 μmol/L ATP, read-out: IC50 DYRK2.

Where two headings read alike, the source gives them in different places.

As usually defined, the IC50 is the point on the concentration scale where inhibition reaches its midpoint.

Sequence of CLK1 (P22518 whole entry): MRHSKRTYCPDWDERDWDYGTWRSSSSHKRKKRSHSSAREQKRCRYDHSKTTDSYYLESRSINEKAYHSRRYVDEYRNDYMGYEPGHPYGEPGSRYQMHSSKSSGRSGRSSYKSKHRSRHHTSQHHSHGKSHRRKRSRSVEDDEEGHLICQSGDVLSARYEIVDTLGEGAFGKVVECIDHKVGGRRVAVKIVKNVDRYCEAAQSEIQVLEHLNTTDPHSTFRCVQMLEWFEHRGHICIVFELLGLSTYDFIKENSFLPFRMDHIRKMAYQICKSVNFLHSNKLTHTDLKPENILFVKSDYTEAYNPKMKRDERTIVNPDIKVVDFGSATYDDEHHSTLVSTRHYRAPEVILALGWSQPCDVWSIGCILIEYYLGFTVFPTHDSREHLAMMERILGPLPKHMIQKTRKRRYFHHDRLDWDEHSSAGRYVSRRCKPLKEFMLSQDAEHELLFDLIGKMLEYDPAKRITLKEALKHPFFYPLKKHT
T11 sequence (O14965 whole entry): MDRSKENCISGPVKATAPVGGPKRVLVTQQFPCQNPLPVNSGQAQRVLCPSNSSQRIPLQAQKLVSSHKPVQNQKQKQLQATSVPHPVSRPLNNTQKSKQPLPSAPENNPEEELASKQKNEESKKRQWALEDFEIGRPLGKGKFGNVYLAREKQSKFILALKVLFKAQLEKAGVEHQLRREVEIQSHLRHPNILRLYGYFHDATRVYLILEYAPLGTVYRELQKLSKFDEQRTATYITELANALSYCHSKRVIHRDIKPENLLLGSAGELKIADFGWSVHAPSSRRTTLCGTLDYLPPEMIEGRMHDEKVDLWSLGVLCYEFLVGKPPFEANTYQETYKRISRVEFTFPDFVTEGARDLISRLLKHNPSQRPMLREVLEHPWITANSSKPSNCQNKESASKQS
T9 sequence (O75460 19-977): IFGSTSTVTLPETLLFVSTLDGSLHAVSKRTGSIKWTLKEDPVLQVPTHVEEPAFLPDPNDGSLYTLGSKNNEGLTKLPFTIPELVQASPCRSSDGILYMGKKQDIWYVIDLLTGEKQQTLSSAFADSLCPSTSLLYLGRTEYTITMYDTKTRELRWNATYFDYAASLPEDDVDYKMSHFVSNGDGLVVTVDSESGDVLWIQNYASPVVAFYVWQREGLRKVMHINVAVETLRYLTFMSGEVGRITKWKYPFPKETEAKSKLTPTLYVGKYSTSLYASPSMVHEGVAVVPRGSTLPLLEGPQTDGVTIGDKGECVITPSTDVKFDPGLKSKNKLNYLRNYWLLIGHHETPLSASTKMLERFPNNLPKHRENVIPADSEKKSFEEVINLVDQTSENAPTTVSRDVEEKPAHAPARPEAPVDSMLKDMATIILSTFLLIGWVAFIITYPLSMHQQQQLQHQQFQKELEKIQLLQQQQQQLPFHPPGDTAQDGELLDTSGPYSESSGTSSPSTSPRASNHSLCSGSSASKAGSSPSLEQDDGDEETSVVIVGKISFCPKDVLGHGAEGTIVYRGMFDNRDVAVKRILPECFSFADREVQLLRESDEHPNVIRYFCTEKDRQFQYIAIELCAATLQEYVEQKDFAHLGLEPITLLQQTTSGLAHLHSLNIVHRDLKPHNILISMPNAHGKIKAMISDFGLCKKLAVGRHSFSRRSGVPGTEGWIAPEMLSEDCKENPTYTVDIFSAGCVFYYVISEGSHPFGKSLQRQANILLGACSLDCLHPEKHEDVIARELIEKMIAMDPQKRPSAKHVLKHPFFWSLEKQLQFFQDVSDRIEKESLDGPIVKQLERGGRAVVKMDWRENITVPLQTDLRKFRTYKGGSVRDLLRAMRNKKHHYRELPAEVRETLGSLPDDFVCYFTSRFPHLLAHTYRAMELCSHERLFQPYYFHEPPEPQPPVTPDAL
T7 sequence (Q8IVH8 whole entry): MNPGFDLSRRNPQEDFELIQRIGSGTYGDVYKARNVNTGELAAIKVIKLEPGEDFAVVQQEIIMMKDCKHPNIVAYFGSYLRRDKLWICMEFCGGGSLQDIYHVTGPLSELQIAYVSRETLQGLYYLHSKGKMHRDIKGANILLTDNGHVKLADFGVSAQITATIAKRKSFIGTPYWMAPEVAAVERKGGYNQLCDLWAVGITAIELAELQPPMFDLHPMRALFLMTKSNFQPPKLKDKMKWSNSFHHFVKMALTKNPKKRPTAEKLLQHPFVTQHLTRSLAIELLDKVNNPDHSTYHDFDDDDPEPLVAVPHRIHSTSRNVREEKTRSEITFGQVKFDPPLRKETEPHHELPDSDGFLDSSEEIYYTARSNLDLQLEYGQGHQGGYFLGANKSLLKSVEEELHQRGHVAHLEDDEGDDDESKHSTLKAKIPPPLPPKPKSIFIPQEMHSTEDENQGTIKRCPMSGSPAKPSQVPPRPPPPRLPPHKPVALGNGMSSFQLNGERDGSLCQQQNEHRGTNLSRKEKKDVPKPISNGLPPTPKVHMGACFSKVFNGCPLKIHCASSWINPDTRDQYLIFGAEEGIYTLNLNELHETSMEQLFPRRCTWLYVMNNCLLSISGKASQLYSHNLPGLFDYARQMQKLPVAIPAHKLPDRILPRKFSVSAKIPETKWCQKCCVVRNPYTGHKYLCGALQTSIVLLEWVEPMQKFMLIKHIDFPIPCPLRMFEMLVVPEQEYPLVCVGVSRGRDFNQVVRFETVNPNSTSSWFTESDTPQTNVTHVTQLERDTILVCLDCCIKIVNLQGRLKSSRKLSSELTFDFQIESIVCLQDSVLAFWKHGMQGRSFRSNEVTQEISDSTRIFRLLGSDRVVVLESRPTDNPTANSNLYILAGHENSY
T6 sequence (O14757 whole entry): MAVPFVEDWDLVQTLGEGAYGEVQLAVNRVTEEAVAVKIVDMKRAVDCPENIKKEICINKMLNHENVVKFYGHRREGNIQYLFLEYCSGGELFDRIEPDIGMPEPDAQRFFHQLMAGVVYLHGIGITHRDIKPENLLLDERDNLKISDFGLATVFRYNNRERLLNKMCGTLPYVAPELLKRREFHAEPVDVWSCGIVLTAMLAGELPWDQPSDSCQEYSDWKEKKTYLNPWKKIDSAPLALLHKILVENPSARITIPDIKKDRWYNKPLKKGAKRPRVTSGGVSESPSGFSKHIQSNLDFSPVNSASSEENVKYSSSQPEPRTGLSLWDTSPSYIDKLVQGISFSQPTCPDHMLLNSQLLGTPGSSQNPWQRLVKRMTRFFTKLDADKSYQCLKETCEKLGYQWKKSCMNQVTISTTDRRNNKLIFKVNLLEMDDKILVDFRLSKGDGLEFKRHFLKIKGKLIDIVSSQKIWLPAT

As for `NC1=N/C(=C\CCNC(=O)c2cc(Br)c(Br)[nH]2)C(=O)N1` [Dispacamide], in [1], the “activity in the kinase panel” value is “essentially inactive”. For the same compound, the 50% inhibitory concentration (IC50) against CLK1, at DYRK3 (setting [3]), on LmCK1 (setting [4]) and on DYRK2 (setting [5]) was over 10000 nM throughout.
Turning to `NC1=NC(=O)/C(=C2\CCNC(=O)c3[nH]cc(Br)c32)N1` [Spongiacidin B], the IC50 on CLK1 is 22 nM; on DYRK3 (setting [3]), 44 nM; on LmCK1 (setting [4]), 25 nM; on DYRK2 (setting [5]) it was 21 nM.
`NC1=N/C(=C\c2ccc(O)c(O)c2)C(=O)N1` [Polyandrocarpamine B]: the IC50 at DYRK3 (setting [3]) was 880 nM; at LmCK1 (setting [4]) it was over 10000 nM; at DYRK2 (setting [5]), 760 nM.
For the compound `CN1C(=O)/C(=C/c2ccc3c(c2)OCO3)N=C1N` [Leucettamine B], in [1], the “activity in the kinase panel” value is reported as “modestly active”. For the same compound, the concentration for half-maximal inhibition (IC50) on CLK1 is 100 nM; at DYRK3 (IC50 DYRK3, 15 μmol/L ATP) it was 600 nM; against LmCK1, over 10000 nM; against DYRK2 (IC50 DYRK2, 15 μmol/L ATP), 490 nM.
Regarding `CN1C(=N)N(C)/C(=C\c2c[nH]c3ccccc23)C1=O` [Aplysinopsine], the “activity in the kinase panel” value in test [1] is “essentially inactive”. In addition, the IC50 at CLK1, at DYRK3 (setting [3]), at LmCK1 (setting [4]) and on DYRK2 (setting [5]) was over 10000 nM each time.
In the case of `CN1C(=O)N=C(Nc2nc(Cc3ccc4c(c3)OCO4)cn2C)C1=O` [Clathridine], the “activity in the kinase panel” value in test [1] is “essentially inactive”. In addition, the IC50 at CLK1 is 6900 nM; at DYRK3 (setting [3]), over 10000 nM; at LmCK1 (setting [4]), over 10000 nM; on DYRK2 (setting [5]), 7100 nM.
`NC1=NC(=O)/C(=C2\CCNC(=O)c3[nH]c(Br)cc32)N1` [Hymenialdisine, reference compound]: the IC50 on CLK1 is 3 nM; at DYRK3 (setting [3]), 4.9 nM; on LmCK1 (setting [4]) it was 2.5 nM; on DYRK2 (setting [5]), 3.1 nM.
Regarding `CN1C(=N)N=C(Nc2nc(Cc3ccc4c(c3)OCO4)cn2C)C1=O` [Clathridimine], the “activity in the kinase panel” value in [1] was “essentially inactive”. The concentration for half-maximal inhibition (IC50) against CLK1 is 7200 nM; on DYRK3 (setting [3]), 6100 nM; on LmCK1 (setting [4]), over 10000 nM; at DYRK2 (setting [5]), 6200 nM.
In the case of `COc1cc(/C=C2\N=C(N)NC2=O)ccc1O` [Polyandrocarpamine A], the Score in the test with EGFR(L747-T751del,Sins) was determined as 92; in the test with FLT3(ITD), 100; on LCK it was 100; in test [2], 100; at MET it was 100; at CHEK1, 100. Further, the Score turned out to be 78 at MAP4K3; 100 on EPHA1; 100 on ERN1; 100 on NEK11; 100 at AURKA; 95 on MYLK2. In addition, the Score at CAMK2D and at CSNK1A1 was 100 in each case. Besides, the concentration for half-maximal inhibition (IC50) on CLK1 was 1000 nM; on DYRK3 (setting [3]), 170 nM; at LmCK1 (setting [4]), over 10000 nM; at DYRK2 (setting [5]), 420 nM.
